Experimental findings from PMC9176662, “Design, synthesis, molecular modeling and biological evaluation of novel Benzoxazole-Benzamide conjugates via a 2-Thioacetamido linker as potential anti-proliferative agents, VEGFR-2 inhibitors and apoptotic inducers” (Journal of Enzyme Inhibition and Medicinal Chemistry, 2022) are described below.

For assay [1], the system named is Bcl-2. Put plainly: Western blot of Bcl-2 expression in MCF-7. It is filed as cell-based, human. The conditions noted are these: MCF-7, Western blot, normalised to β-actin. An excerpt: (§1) It is well known that the anti-apoptotic proteins Bcl-2 and Bcl-xL are mainly overexpressed in various types of cancer, causing survival of cancer cells and/or drug resistance. Therefore, inhibition of these proteins expression leads to cancer cell death and has been used as a strategy for anticancer drug development. In this study, the impact of compounds 1 and 11 on Bcl-2 and Bcl-xL expression in HCT-116 and MCF-7 cancer cell lines was examined using Western blot analysis and all the data were normalised to β-actin (Figure 9).
(§2) 2.5. Impact of compounds 1 and 11 on the level of anti-apoptotic markers (Bcl-2, and Bcl-xL).
(§3) Gel electrophoresis and immuno-blot analysis of proteins (Western Blot) method was used to examine the effect of compounds 1 and 11 on the level of anti-apoptotic markers (Bcl-2, and Bcl-xL). […]
(§4) The cells were then immediately frozen at −20 °C for 1 h for further lysis and collected by cell scraper and sonicated 2×10s. Total protein concentrations were determined colorimetrically using Bradford method before proceeding to the western blotting. […] Briefly, the membranes were incubated for 1 min with a mixture of equal volumes from ECL solution A and ECL solution B. The chemiluminescent signals were captured using a CCD camera-based imager (Chemi Doc imager, Biorad, USA), and the band intensities were then measured with β-actin as an internal reference protein. […]

The test system of another assay is MCF-7 cells. Put plainly: Annexin V-FITC/PI apoptosis assay, MCF-7. It counts as cell-based, human. The note with it: for %Apoptosis %Early: control 0.47; for %Apoptosis %Late: control 1.34; for %Necrosis: control 1.6; for %Apoptosis %Total: control 3.41. As to the method:
2.4. Annexin V-FITC/PI apoptosis assay.
For this study, annexin V-FITC / PI apoptosis detection kit was used; HCT -116 and MCF-7 cells were stained with annexin V fluorescein isothiocyanate (FITC) and propidium iodide (PI) counter-stained.1 x 10^5 HCT-116 cells were 48 h incubated with compound 1 or 11, trypsinized, washed with phosphate-buffered saline (PBS), stained in the dark at 37 °C for 15 min utes.
Finally, the cells analyzed with a cytometer of FACS Caliber flow.

In the next assay the test system is WI-38 cells. Put plainly: Cytotoxicity against normal fibroblasts, SRB assay, WI-38. It counts as cell-based. The note with it: normal human fibroblasts, 72 h, mean ± SD of three separate experiments. An excerpt: Several of these derivatives were reported as acting as competitive inhibitors of different tyrosine kinases, with potent cytotoxic activity against various cell lines[58]^,[59]. […] Thus, in this study a novel series of benzoxazole-benzamide conjugates was initially evaluated for their potential anti-cancer activity against colon cancer cell line (HCT-116), breast cancer cell line (MCF-7) and normal human fibroblasts (WI-38), using the Sulforhodamine B colorimetric (SRB) assay.
2.1. Anti-proliferative activity against HCT-116 and MCF-7 human cancer cells lines.
The sulforhodamine B (SRB) assays were performed according to Skehan et al..
Briefly, exponentially growing cells were trypsinized, counted and seeded at the appropriate densities (5000 cells/100 μL/ well) into 96-well microtiter plates. Cells were incubated in a humidified atmosphere at 37 °C for 24 h. Then, the cells were exposed to the tested compounds at the desired concentrations (0.01, 0.1, 1, 10, and 100 μM) or to 1% dimethyl sulfoxide (DMSO) for 72 h. At the end of the treatment period, the media were removed, and the cells were fixed with 10% trichloroacetic acid at 4 °C for 1 h. Following, the cells were washed with tap water four times and incubated with SRB 0.4% for 30 min. Excess dye was removed by washing repeatedly with 1% (vol/vol) acetic acid. The protein-bound dye was dissolved in 10 mM Tris base solution for (optical density) OD determination at 510 nm using a Spectra Max plus Microplate Reader (Molecular Devices, CA). Cell viability was expressed relative to the untreated control cells. […]
Background: The SRB assay estimates cell density from bound dye.

Assay [2] concerns Bcl-2. Kind of assay: Western blot of Bcl-2 expression in HCT-116. It counts as cell-based, human. The conditions noted are these: HCT-116, Western blot, normalised to β-actin.
Text: as §1, §2, §3, §4
(In general: In western blotting, separated proteins are transferred to a membrane and probed.)

Usually IC50 stands for the concentration needed to halve the response being measured. On to `O=C(CSc1nc2ccccc2o1)Nc1ccc(C(=O)NC2CCCCC2)cc1` [Compound 1], for which the Bcl-2 expression result in the assay on Bcl-2 [1] was “inhibited”. For the same molecule, in the assay on MCF-7 cells, the “total increase in apoptosis compared to the control” value is “approximately 5.8 fold”, the “%Apoptosis %Early” value is reported as 6.02%, the “%Apoptosis %Late” value is given as 12.17% and the “%Necrosis” value worked out at 1.59%. In the assay on MCF-7 cells, the “%Apoptosis %Total” value was determined as 19.78%. The same molecule returned a concentration for half-maximal inhibition (IC50) in the assay with WI-38 cells of 41.9 ± 0.27 µM. For the same molecule, in the assay on Bcl-2 [2], the Bcl-2 expression result is listed as “inhibited”.
On to `O=C(CSc1nc2cc(Cl)ccc2o1)Nc1ccc(C(=O)Nc2ccc(Cl)cc2)cc1` [Compound 11], for which the Bcl-2 expression entry in the assay with Bcl-2 [1] is recorded as “inhibited”. In the assay with MCF-7 cells, the “total increase in apoptosis compared to the control” value is approximately 5.0 fold, the “%Apoptosis %Early” value worked out at 4.93%, the “%Apoptosis %Late” value stood at 10.26% and the “%Necrosis” value stood at 1.74%. Besides, the “%Apoptosis %Total” value with MCF-7 cells was 16.93%. The same molecule returned an IC50 with WI-38 cells of 103.5 ± 0.7 µM. The Bcl-2 expression entry with Bcl-2 [2] is on record as “inhibited”.
